system: FADD-deficient Jurkat cells; experiment: necroptosis assay (TNF-α-induced necroptosis, CellTiter-Glo ATP-based viability); assay type: cell-based; settings: FADD-deficient Jurkat cells treated with 10 ng/ml human TNFalpha for 24 hr, eleven concentrations
Protocol: Evaluation of necroptosis inhibitory activity can be performed using a FADD-deficient variant of human Jurkat T cells treated with TNF-α as previously described (Degterev et al., Nat. Chem. Biol. 1:112 (2005) and Jagtap et al., J. Med. Chem. 50: 1886 (2007)). For EC50 value determinations, cells can be treated with 10 ng/mL of human TNF-α in the presence of increasing concentration of test compounds for 24 hours followed by ATP-based viability assessment.
ATP-based viability assessment: Briefly, necroptosis activity can be performed using a FADD-deficient variant of human Jurkat T cells treated with TNF-α. For EC50 value determinations, cells (500,000 cells/mL, 100 μL per well in a 96-well plate) can be treated with 10 ng/mL of human TNF-α in the presence of increasing concentration of test compounds for 24 hours at 37° C. in a humidified incubator with 5% CO2 followed by ATP-based viability assessment. Stock solutions (30 mM) in DMSO can be prepared and then diluted with DMSO to give testing solutions, which were added to each test well. The final DMSO concentration can be 0.5%. Eleven compound test concentrations (0.030-100 μM) can be used, and each concentration can be done in duplicate.
Cell viability assessments can be performed using a commercial luminescent ATP-based assay kit (CellTiter-Glo, Promega, Madison, Wis.) according to the manufacturer's instructions. Briefly, 40 μL of the cell lysis/ATP detection reagent can be added to each well. Plates can be incubated on a rocking platform for 10 minutes at room temperature and luminescence was measured using a Wallac Victor 3 plate-reader (Perkin Elmer, Wellesley, Mass.). Cell viability can be expressed as a ratio of the signal in the well treated with TNF-α and compound to the signal in the well treated with compound alone in order to account for nonspecific toxicity. EC50 values can be calculated using nonlinear regression analysis of sigmoid dose-response (variable slope) curves from plots of log [I] verses viability values.
For necroptosis assay, FADD-deficient Jurkat cells were treated with 10 ng/ml human TNFalpha for 24 hr, followed by CellTiter-Glo viability assay (Promega). EC50 values were calculated using non-linear regression in GraphPad Prism software. Eleven concentrations of each compound were tested to generate dose response curves.

Row | Structure (SMILES) | EC50 | EC50, nM in necroptosis assay
1 | Cc1cc(CCCCN2C(=O)NC(Cc3c[nH]c4c(Cl)cccc34)C2=O)ccc1C#Cc1cnc2cccnn12 (stereo not drawn) [Compound (35)] | 299 nM | 
2 | CNC(=O)c1cc(Oc2ccc(NC(=O)N3C(=O)NC(Cc4c[nH]c5c(Cl)cccc45)C3=O)c(F)c2)ccn1 (stereo not drawn) [Compound (38)] |  | INACTIVE
3 | Cc1ccc(CCCCCN2C(=O)NC(Cc3c[nH]c4c(Cl)cccc34)C2=O)cc1C#Cc1cnc2cccnn12 (stereo not drawn) [Compound (34)] | 185 nM | 
4 | O=C(NCCN1C(=O)NC(Cc2c[nH]c3c(Cl)cccc23)C1=O)c1cccc(C#Cc2cnc3cccnn23)c1 (stereo not drawn) [Compound (3)] | 364 nM | 
5 | Cc1ccc(CCCN2C(=O)NC(Cc3c[nH]c4c(Cl)cccc34)C2=O)cc1C#Cc1cnc2cccnn12 (stereo not drawn) [Compound (33)] | 74.4 nM | 
6 | O=C1NC(Cc2c[nH]c3c(Cl)cccc23)C(=O)N1CCC#Cc1cnc2cccnn12 (stereo not drawn) [Compound (41)] | 745 nM | 
7 | Cc1ccc(C(=O)NCCN2C(=O)NC(Cc3c[nH]c4c(Cl)cccc34)C2=O)cc1CCc1cnc2cccnn12 (stereo not drawn) [Compound (8)] | 1770 nM | 
8 | Cc1ccc(OCCN2C(=O)NC(Cc3c[nH]c4c(Cl)cccc34)C2=O)cc1C#Cc1cnc2cccnn12 (stereo not drawn) [Compound (32)] | 134 nM | 
9 | CNC(=O)c1cc(Oc2ccc(CCCN3C(=O)NC(Cc4c[nH]c5c(Cl)cccc45)C3=O)c(F)c2)ccn1 (stereo not drawn) [Compound (37)] | 24500 nM | 
10 | Cc1ccc(CCN2C(=O)NC(Cc3c[nH]c4c(Cl)cccc34)C2=O)cc1C#Cc1cnc2cccnn12 (stereo not drawn) [Compound (31)] | 136 nM | 
11 | Cc1ccc(SCCN2C(=O)NC(Cc3c[nH]c4c(Cl)cccc34)C2=O)cc1C#Cc1cnc2cccnn12 (stereo not drawn) [Compound (30)] | 80.4 nM | 
12 | CNC(=O)c1cc(Oc2ccc(NC(=O)CCN3C(=O)NC(Cc4c[nH]c5c(Cl)cccc45)C3=O)c(F)c2)ccn1 (stereo not drawn) [Compound (36)] | 19300 nM | 
13 | Cc1ccc(CCCCN2C(=O)NC(Cc3c[nH]c4c(Cl)cccc34)C2=O)cc1C#Cc1cnc2cccnn12 (stereo not drawn) [Compound (29)] | 9.9 nM | 
14 | Cc1ccc(C(=O)NCCN2C(=O)NC(Cc3c[nH]c4c(Cl)cccc34)C2=O)cc1C#Cc1cnc2ccccn12 (stereo not drawn) [Compound (2)] | 163 nM | 
15 | Cc1ccc(C(=O)NCCN2C(=O)NC(Cc3c[nH]c4c(Cl)cccc34)C2=O)cc1C#Cc1cnc2cccnn12 (stereo not drawn) [Compound (1)] | 200 nM | 
